Measured values reported in patent US20180369195A1, “COMBINATION THERAPY FOR TREATMENT OF MELANOMA” (The Regents of the University of California, priority 2015, published 2018).

Legend:
[1] = test system: LEF1; assay: Chromatin immunoprecipitation, LEF1 at MITF-M promoter; type: cell-based, human; details: G361 cells, 20 μM 1-benzyl I3C, 48 hours
[2] = test system: Wnt signaling pathway; assay: Immunofluorescence of tumor xenograft sections for Wnt signaling pathway; type: in vivo, human; details: 1-benzyl I3C treated tumor xenografts vs DMSO
Method: (§1) Approximately 1 million G361 melanoma cells in a total volume of 0.1 ml of Matrigel were injected subcutaneously into each lateral flank of NIH III athymic nude mice. The resulting tumors were allowed to grow to a mean starting volume of 146±10 mm^3. The animals were then randomized into two groups; a vehicle control group that was treated with DMSO and an I3C treated group that were injected daily with 200 mg/kg body weight of I3C. The resulting tumor volumes were measured every other day for four weeks using calipers. The tumor volumes were calculated using the standard formula: […], and changes in tumor volumes were calculated using the formula: 100+{(Tf−Ti)/Ti×100}, where Tf is the final mean tumor volume and Ti is the initial mean tumor volume. At terminal sacrifice, tumor xenografts were harvested, and a portion of each tumor was fixed in 4% para-formaldehyde for 1 hour at room temperature, followed by a phosphate-buffered saline (PBS) wash and subsequently immersed in […] overnight at 4° C. The resulting tissues were embedded in OCT and 10 μm thin sections were taken for immunofluorescence studies.

[3] = test system: 5 different melanoma cells lines; assay: CCK-8 proliferation assay, 5 melanoma cell lines with distinct mutation profiles; type: cell-based, human; details: 20 μM 1-benzyl I3C, 200 μM I3C, 48 hours
Method: The same treatment regime was repeated on multiple melanoma cell lines with 20 μM 1-benzyl I3C and 200 μM I3C for 48 hours to compare the relative sensitivities of the different cell lines with distinct mutation profiles to 1-benzyl I3C and I3C. Cells were treated with 20 μM 1-benzyl I3C every 24 hours for 72 hours and harvested at 24, 48 and 72 hours for western blot and flow cytometric analysis. Cells were treated with 20 μM LiCl or 10 μM BIO for 48 hours before harvesting them for western blots.
(§2) Subsequently inhibition of proliferation was assessed using Cell counting Kit-8 (Dojindo) as per the protocol in the user's manual. Briefly, 50 μl of the CCK-8 solution was added to each well along with 450 μl media and incubated for 2-3 hours. The absorbance was read at 450 nm and % inhibition was calculated for each condition standardizing DMSO to zero using the formula: [(100−Value of treatment/Value of DMSO treated control)×100]

[4] = test system: normal epidermal melanocytes; assay: CCK-8 proliferation assay, normal epidermal melanocytes; type: cell-based; details: 1-benzyl I3C treatment
[5] = test system: G361 cells; assay: Flow cytometry analysis of DNA content, G361; type: cell-based, human; details: maximal dose of 200 μM I3C
Method: Melanoma cells were treated with the indicated concentrations of 1-benzyl […] in triplicates every 24 hours and harvested at the end of 24, 48 or 72 hours for cell cycle analysis. The DNA content of propidium iodide stained nuclei from harvested cells were determined by flow cytometry. Briefly, cells were hypotonically lysed in […] of DNA staining solution (0.5 mg/mL propidium iodide, 0.1% sodium citrate, and 0.05% Triton-X 100). Emitted fluorescence from the nuclear of wavelengths more than 585 nm was measured with a Coulter Elite instrument with laser output adjusted to deliver 15 mW at 488 nm. Ten thousand nuclei were analyzed from each sample at a rate of 300-500 nuclei/second. The percentage of cells within the G1, S, and G2/M phases of the cell cycle were determined by analysis with the Multicycle computer program provided by Phoenix Flow Systems in the Cancer Research Laboratory Microchemical Facility of the University of California, Berkeley.

[6] = test system: SK-MEL-24 cells; assay: CCK-8 proliferation assay, SK-MEL-24; type: cell-based, human; details: 200 μM I3C, 72 hours; wild type BRAF
Method: as §2, with “[(100-Value” for “[(100−Value”

[7] = molecular target: T1, BRAF-V600E (Homo sapiens, UniProt P15056, V600E); assay: In vitro BRAF kinase assay, in-vitro treated BRAF-V600E from G-361 cells; type: biochemical; details: pre-incubated 2 hours; 200 μM or 400 μM I3C
T1 construct: BRAF-V600E was immunoprecipitated from untreated G-361 cells and incubated in vitro; endogenous in cells; host or cells: G-361 human melanoma cells (ATCC)
T1 sequence (P15056 whole entry V600E): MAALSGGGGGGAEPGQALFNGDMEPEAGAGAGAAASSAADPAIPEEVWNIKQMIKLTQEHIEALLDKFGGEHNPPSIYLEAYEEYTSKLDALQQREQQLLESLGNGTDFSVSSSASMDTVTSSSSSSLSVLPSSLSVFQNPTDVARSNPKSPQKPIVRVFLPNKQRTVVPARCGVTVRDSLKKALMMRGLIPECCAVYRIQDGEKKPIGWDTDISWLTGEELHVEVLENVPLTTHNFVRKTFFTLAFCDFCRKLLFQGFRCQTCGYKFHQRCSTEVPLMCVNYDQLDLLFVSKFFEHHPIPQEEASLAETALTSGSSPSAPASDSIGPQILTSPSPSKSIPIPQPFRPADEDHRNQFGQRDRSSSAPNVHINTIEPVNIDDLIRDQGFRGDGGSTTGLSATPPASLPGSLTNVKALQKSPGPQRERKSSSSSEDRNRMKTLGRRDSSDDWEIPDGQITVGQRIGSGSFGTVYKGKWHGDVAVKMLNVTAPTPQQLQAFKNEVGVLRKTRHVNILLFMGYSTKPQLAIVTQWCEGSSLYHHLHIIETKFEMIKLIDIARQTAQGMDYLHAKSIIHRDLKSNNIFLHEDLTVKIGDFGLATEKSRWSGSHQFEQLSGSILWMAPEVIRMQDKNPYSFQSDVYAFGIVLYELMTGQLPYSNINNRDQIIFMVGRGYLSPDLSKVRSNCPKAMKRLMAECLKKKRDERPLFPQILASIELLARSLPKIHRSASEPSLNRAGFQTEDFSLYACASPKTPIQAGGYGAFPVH
Method: BRAF was pulled down from the cell lysates using anti-BRAF antibodies bound to protein G-coupled Sepharose beads, while IgG was used as a negative control. Post-immunoprecipitation supernatants were probed with anti BRAF antibody by western blots to determine pull-down efficiency. […] The reactions were terminated by adding 4× sodium dodecyl sulfate (SDS) sample buffer and boiling the mixture at 100° C. for 5 min. The samples were then electrophoresed, immunoblotted and probed for relative protein levels of phosphorylated MEK and total MEK to assess the kinase activity of the immunoprecipitated BRAF.

[8] = test system: MITF-M; assay: Immunofluorescence of tumor xenograft sections for MITF-M; type: in vivo, human; details: I3C 200 mg/kg, terminal sacrifice, relative to vehicle
Method: as §1, with “I3C” left out, “[…].” for “I3C.”, “100+{(Tf-Ti)/Ti×100},” for “100+{(Tf−Ti)/Ti×100},”

SMILES	LEF1 interactions with the MITF-M promoter [1]	effect on Wnt signaling pathway in tumor xenograft sections [2]	range of sensitivity across mutation profiles [3]	antiproliferative response [4]	G1 cell cycle arrest [5]	sensitivity to anti-proliferative effects [6]	BRAF-V600E activity (phosphorylated MEK), direct in vitro incubation [7]	MITF-M protein in tumor xenograft sections [8]
OCc1cn(Cc2ccccc2)c2ccccc12 [1-benzyl I3C, 1-benzyl indole-3-carbinol]	significantly disrupted nuclear LEF1 interactions with this promoter	mimicked the cell culture data	much wider range of sensitivity than I3C and Vemurafenib	No such antiproliferative response	–	–	–	–
OCc1c[nH]c2ccccc12 [I3C, indole-3-carbinol]	–	–	–	–	significant G1 cell cycle arrest	significantly less sensitive	strongly down regulated BRAF-V600E activity	strong down-regulation of MITF-M protein
